From patent US20260315434A1, “USE OF GUAIACOL SESQUITERPENE LACTONE DERIVATIVES” (NANJING UNIVERSITY OF CHINESE MEDICINE, priority 2023, published 2026)
Marks after values point to notes of the source that are not given here.

Experiments:
T cells / MDSCs = assay: Promotion of T cell proliferation in a co-culture model of MDSCs and T cells; type: cell-based, mouse; conditions: Mus musculus, T-cell, 12 h, read-out: T-cell proliferation rate (%)
How it was run: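 Bone-marrow MDSCs, after compound treatment, were co-cultured 48 h at 1:1 with CFDA-SE-labelled (10 μM solution), activated splenic T cells. Proliferation of CD3+ T cells was read by flow cytometry.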

Hepa1-6 cells = assay: Antitumor effect in Hepa1-6 mouse hepatocellular carcinoma subcutaneous xenograft model; type: in vivo, C57BL/6 mice; conditions: mouse, in vivo, po
T cells = assay: Proportion of T cells in tumor and spleen of H22 xenograft mice (flow cytometry); type: in vivo, BALB/c mice
Description: Once all tumors were dissected, nail-sized tumor pieces were transferred to 1.5 mL Eppendorf tubes and minced with scissors. Transfer the minced tumor tissue suspension to a 15 mL centrifuge tube containing 3-5 mL of digestive enzymes (Collagenase IV 1 mg/mL, Hyaluronidase 1 mg/mL, DNase 120 U/mL). Incubate at 37° C. on a shaking incubator at 200 rpm for 1 hour. After digestion, pass the mixture through a 200-mesh sieve to obtain the tumor cell suspension. Centrifuge the resulting tumor suspension at 1600 rpm for 5 min, aspirate the supernatant, resuspend cells in 1 mL of 1×PBS per tube. Transfer the cell suspension to a 1.5 mL Eppendorf tube, centrifuge at 1600 rpm for 5 min, remove the supernatant, resuspend cells in 100 μL of 1×PBS per tube, add 1 μL of dead/live dye to each tube, mix thoroughly, and incubate at room temperature in the dark for 15 min. […] Position the spleen on a 200-mesh cell strainer. Gently press the spleen using a 10 mL syringe needle. […] Transfer the splenocyte suspension into a 15 mL centrifuge tube. Centrifuge at 1600 rpm for 5 min to collect cells. Wash once with 1×PBS. Add 3 mL red blood cell lysis buffer (diluted with ddH2O) to each tube and incubate for 5 min. After lysis, add 10 mL 1×PBS to each tube to terminate lysis. Centrifuge at 1600 rpm for 5 min. Add 1 mL 1×PBS to each 15 mL centrifuge tube, transfer to 1.5 mL EP tubes, and centrifuge at 1600 rpm for 5 min. Add 1×PBS to each tube containing stained tumor cells and lysed spleen cells for one wash, centrifuge at 1600 rpm for 5 min, and remove the supernatant. Resuspend tumor cells and spleen cells separately in 100 μL 1×PBS. Add 1 μL FcX™ antibody to each tube and incubate at room temperature in the dark for 10 min. After incubation, sequentially add 1 μL each of CD45, CD3, and CD8 antibodies to each tube. Incubate at 4° C. in the dark for 30 min. After staining, wash once with 1 mL PBS. Centrifuge at 1600 rpm for 5 min. Discard the supernatant. Resuspend cells in 300 μL 1×PBS. Filter the cell suspension into a flow cytometry tube and proceed to instrument analysis.

CT26 cells = assay: Antitumor effect in CT26 colon cancer mouse subcutaneous model; type: in vivo, BALB/c mice
[1] = test system: renal injury markers (Ngal, Havcr1) in kidney tissue; assay: Folic acid-induced acute kidney injury, renal injury marker mRNA; type: in vivo, C57BL/6 mice; design: scale not given here; conditions: folic acid acute model, 1 mg/kg oral; 1 mg/kg
Description: (§1) Except for the normal group, all other mice were administered folic acid (250 mg/kg) dissolved in 0.9% NaHCO3 solution via intraperitoneal injection to establish an acute kidney injury model.
(§2) The blood was allowed to stand at room temperature for 2 hours, then centrifuged at 3000 rpm for 20 minutes. Serum was aspirated, aliquoted, and stored at −70° C. for future use. Following blood collection, euthanize mice by cervical dislocation. Perform laparotomy to remove kidneys, dissect out perirenal fat and capsules. […] Paraffin-embedded specimens undergo HE staining; remaining tissue is stored at −70° C. for future use.

[2] = test system: inflammatory cytokines (TNF, IL-6, IL-1) in renal tissue; assay: Folic acid-induced acute kidney injury, renal inflammatory factor mRNA; type: in vivo, C57BL/6 mice; conditions: folic acid acute model, 1 mg/kg oral; 1 mg/kg
Description: as §1, §2

[3] = test system: renal injury markers (Ngal, Havcr1) in kidney tissue; assay: Unilateral ureteral ligation (UUO) chronic kidney injury, renal injury marker mRNA; type: in vivo, C57BL/6 mice; design: unit not given here; conditions: UUO chronic model, 1 mg/kg oral; 1 mg/kg
Source text: (§3) Chronic Kidney Injury: Mice were randomly divided into five groups. […] Except for the sham-operated mice in the normal group (where only the left ureter was exposed without further manipulation), all other mice underwent unilateral ureteral ligation to establish a chronic kidney injury model as follows: The abdominal skin was disinfected with iodine solution followed by alcohol. An incision was made, and the abdominal layers were dissected sequentially. The left ureter was fully exposed and dissected. A double ligation was performed at the bladder-proximal end of the left ureter using absorbable suture material, followed by closure.
as §2

[4] = test system: inflammatory cytokines (TNF, IL-6, IL-1) in renal tissue; assay: UUO chronic kidney injury, renal inflammatory factor mRNA; type: in vivo, C57BL/6 mice; design: unit not given here; conditions: UUO chronic model, 1 mg/kg oral; 1 mg/kg
Source text: as §3, §2

[5] = test system: fibrosis-related factors (α-Sma, Col1a1, Tgfb1) in kidney tissue; assay: UUO chronic kidney injury, renal fibrosis-related factor mRNA; type: in vivo, C57BL/6 mice; design: unit not given here; conditions: UUO chronic model, 1 mg/kg oral; 1 mg/kg
Source text: as §3, §2

[6] = 80 μmol/kg/day, oral, 3 weeks, CT26

## C=C1C(=O)O[C@@H]2[C@H]3C(C)=CC[C@@]34O[C@@]4(C)CC[C@@H]12 [Arg, Arglabin, reference compound]
T cells / MDSCs
  activation at 1 µM: > 40%
Hepa1-6 cells
  Tumor weight: 0.04 ± 0.03 g
T cells; mouse, in vivo
  proportion of T cells in tumor tissues and spleens: significantly increased
CT26 cells; mouse, in vivo, po
  tumor-inhibiting effect, CT26: tumor-inhibiting effects

## CN(C)C[C@@H]1C(=O)O[C@H]2[C@H]1CC[C@@]1(C)C[C@]13CC[C@@](C)(O)[C@H]23 [Compound 20]
[1]
  Havcr1 mRNA expression, kidney: 62.86 ± 12.20
  Ngal mRNA expression, kidney: 13.05 ± 1.82
[2]
  Il1 mRNA expression, kidney: 1.06 ± 0.33
  Il6 mRNA expression, kidney: 1.55 ± 0.28
  Tnf mRNA expression, kidney: 2.31 ± 0.72
[3]
  Havcr1 mRNA expression, kidney: 6.29 ± 2.43
  Ngal mRNA expression, kidney: 16.14 ± 2.74
[4]
  Il1 mRNA expression, kidney: 2.77 ± 0.40
  Il6 mRNA expression, kidney: 3.69 ± 1.26
  Tnf mRNA expression, kidney: 5.09 ± 0.66
[5]
  Col1a1 mRNA expression, kidney: 7.30 ± 0.90
  Tgfb1 mRNA expression, kidney: 1.44 ± 0.21
  α-Sma mRNA expression, kidney: 1.26 ± 0.18
T cells; 40 μmol/kg/day, oral, 2 weeks, spleen, flow cytometry
  Spleen T cells (%): 37.19 ± 6.99 %
T cells; 40 μmol/kg/day, oral, 2 weeks, tumor, flow cytometry
  Tumor T cells (%): 29.44 ± 6.07 %
T cells; compared with solvent control, result in words
  proportion of T cells in tumor tissues and spleens: significantly increased
CT26 cells; [6]
  Tumor inhibition rate (%): 43.36%*
  Tumor weight: 4.62 ± 1.29 g
CT26 cells; oral, 3 weeks, result in words
  tumor-inhibiting effect, CT26: tumor-inhibiting effects
